Source: article PMC9403717, “Ruthenium complexes show potent inhibition of AKR1C1, AKR1C2, and AKR1C3 enzymes and anti-proliferative action against chemoresistant ovarian cancer cell line” (Frontiers in Pharmacology, 2022)
Several values for one entry are separate records, joined by “and”; a condition that tells them apart may be missing. Equal values may be shown once.

Tests used:
HIO80 cells = test: Cell proliferation assay (alamarBlue), control cell line HIO80; type: cell-based, human; details: 48 h incubation
Description: (§1) The cell line COV362 (CVCL_2,420) was originally established from a high-grade ovarian serous adenocarcinoma from a metastatic site in the pleural effusion ([van den Berg-Bakker et al., 1993]) and was purchased from ECACC (ECACC 07071910) as p37 on 13 October 2017. The growth medium for COV362 cells was DMEM (D5546; Sigma–Aldrich GmbH), with 10% FBS (F9665; Sigma–Aldrich GmbH) and 2 mM L-glutamine (G7513; Sigma–Aldrich GmbH). COV362 cells in passages p37 + 12 to p37 + 17 were used in this study and seeded at a concentration of 3.5 cells/ml × 10^4 cells/ml for proliferation studies and at a concentration of 5.3 × 10^5/ml for migration studies. The cell line OVCAR-4 (CVCL_1,627) is a high-grade serous ovarian adenocarcinoma cell line established from a patient refractory to cisplatin ([Johnson et al., 1997]). The cell line was purchased from Merck on 19 March 2021. The growth medium for OVCAR-4 cells was RPMI-1640 (Sigma R5586) supplemented with 2 mM glutamine (G7513; Sigma–Aldrich GmbH), 10% FBS (F9665; Sigma–Aldrich GmbH), 0.25 μg/ml insulin (I9278; Sigma–Aldrich GmbH). OVCAR-4 cells in passages p+6 to p+15 were used in this study and seeded at a concentration of 6 cells/ml × 10^4 cells/ml. The control cell line HIO80 (CVCL_E274) was obtained from Andrew K. Godwin (University of Kansas Medical Center, Kansas, United States) on 20 October 2017 as p+72. It was originally established from ovarian surface epithelium ([Yang et al., 2004]). HIO80 cells were grown in RPMI medium (R5886, Sigma–Aldrich GmbH) supplemented with 10% FBS (F9665; Sigma–Aldrich GmbH), 2 mm L-glutamine (G7513; Sigma–Aldrich GmbH) and 6.6 µg/ml insulin (I9278; Sigma–Aldrich GmbH). HIO80 cells in passages p72 + 8 to p72 + 19 were used in this study and seeded at a concentration of 2 × 10^4 cells/mL. HIO80 in passage +10 was authenticated by short tandem repeats (STR) profiling performed by ATCC on 22 February 2019. Cells were grown in a humidified atmosphere containing 5% CO2 at 37°C. All cell lines were negative for mycoplasma infection which was periodically tested using MycoAlert^TM mycoplasma detection kit (Lonza, Basel, Switzerland).
(§2) The effect of ruthenium compounds on the proliferation of ovarian cancer cell lines COV362 and OVCAR-4 and the control cell line HIO80 was analyzed using the cell proliferation reagent alamarBlue HS (A50101; Thermo Fisher Scientific) following the manufacturer’s instructions.
(§3) Cells were seeded in 96-well plates in 100 µL of medium and allowed to adhere and grow for 24 h. […] Cisplatin and carboplatin purchased from Sigma–Aldrich GmbH (cat. number: PHR1624, lot: LRAB7778) and (cat. number: C2538, lot: MKCK1243) were dissolved in sterile water. Working solutions were prepared by a serial dilution of stock solutions with a culture medium. After the initial incubation, cells were treated with ruthenium complexes, cisplatin, and carboplatin. A range of final concentrations between 0.001 and 300 µM were used for ruthenium complexes and cisplatin, and between 0.001 µM and 1 mM for carboplatin. After 48 h of incubation, plates were incubated with 20 µL of alamarBlue. After 4 h absorbance was measured with a BioTek microplate spectrophotometer at 570 nm, with the reference wavelength set at 600 nm. First, the background value of a well containing the active substance without cells was subtracted, then the average values for duplicates/triplicates were calculated. The absorbance of the well containing only untreated cells was used as a normalization control. The half-maximal […] concentration (IC50) was determined for all ruthenium complexes with a growth-inhibiting effect on cells by constructing a dose-response curve (Graph Pad Prism, Version 8.0).

COV362 cells = test: Cell proliferation assay (alamarBlue), chemoresistant ovarian cancer cell line COV362; type: cell-based, human; details: for IC50: 48 h incubation
Description: as §1, §2, §3

Compound	IC50 (HIO80 cells) [µM]	IC50 (COV362 cells)	effect on proliferation (in words) (COV362 cells)
Cc1ccc(C(C)C)cc1.O=[N+]([O-])c1ccc([O][Ru][Cl])c2ncccc12 [Compound 9, (η ^6-p-Cymene) (nitroxolinato)chloridoruthenium (II)]	12.8	21.5 µM	
C1N2CN3CN1CP(C2)C3.Cc1ccc(C(C)C)cc1.F[P-](F)(F)(F)(F)F.O=C(C=C([O][Ru+])c1ccc2c(c1)OCO2)C(F)(F)F [Compound 6]	187	152 µM	
C1N2CN3CN1CP(C2)C3.Cc1ccc(C(C)C)cc1.F[P-](F)(F)(F)(F)F.O=[N+]([O-])c1ccc([O][Ru+])c2ncccc12 [Compound 10, (η ^6-p-cymene)(nitroxolinato)(pta)ruthenium(II) hexafluorophosphate]	> 200	> 200 µM	inactive
C1N2CN3CN1CP(C2)C3.Cc1ccc(C(C)C)cc1.F[P-](F)(F)(F)(F)F.O=C(C=C([O][Ru+])c1ccc(I)cc1)C(F)(F)F [Compound 2]	92	141 µM	
Cc1ccc(C(C)C)cc1.O=C(C=C([O][Ru][Cl])c1ccc(I)cc1)C(F)(F)F [Compound 1]	41.9	96.6 µM	
CN(C)c1ccc(C(=CC(=O)C(F)(F)F)[O][Ru][Cl])cc1.Cc1ccc(C(C)C)cc1 [Compound 3, (η^6-p-cymene)chlorido(4,4,4-trifluoro-1-(4-(dimethylamino)phenyl)-1,3-butandionato)ruthenium(II)]	34.7	< 100 µM and 90.2 µM	
C1N2CN3CN1CP(C2)C3.Cc1ccc(C(C)C)cc1.F[P-](F)(F)(F)(F)F.[O-]c1c(I)cc(Cl)c2cccnc12.[Ru+2] [Compound 8]	32.5	38 µM	
Cc1ccc(C(C)C)cc1.[Cl-].[O-]c1c(I)cc(Cl)c2cccnc12.[Ru+2] [Compound 7]	14.3	17.7 µM	
Cc1ccc(C(C)C)cc1.O=C(C=C([O][Ru][Cl])c1ccc2c(c1)OCO2)C(F)(F)F [Compound 5]	60.5	136 µM	
